According to patent US20160115540A1, “PRODRUGS AND DRUGS” (Biogen MA Inc., priority 2013, published 2016):
Counter-ions that a name gives are not always drawn.

System: jejunum
Test: Transcriptional profiling on Affymetrix GeneChips, single dose, naïve mice: jejunum
Type: in vivo, C57BL/6 mice
Details: jejunum, 100DMF-vs-Veh
Protocol: Treated mice were sacrificed at 2, 7, or 12 hours. Tissues (liver, spleen, kidney, jejunum, cortex, hippocampus, striatum and whole blood) were collected and analyzed by transcriptional profiling on mouse Affymetrix GeneChips.
Tissues (liver, spleen, kidney, jejunum, cortex, hippocampus, striatum and whole blood) were collected and analyzed by transcriptional profiling on mouse Affymetrix GeneChips.
Animals were exposed to CO2 and whole blood collected via cardiac puncture. Two 100 μl aliquots of whole blood were collected in 1.5 mL microcentrifuge tubes and snap frozen in liquid nitrogen. Peripheral (liver, spleen, kidney and jejunum) and CNS brain (cerebellum, hippocampus, striatum and cortex) tissues were harvested and snap frozen in liquid nitrogen, with special care taken to collect tissues of similar size and from the same location. All samples were stored at −80° C. until RNA extraction was conducted.
For RNA preparation, frozen tissues were placed in 2 mL RNAse-free 96-well blocks with 1.5 mL QIAzol Lysis Reagent (QIAgen) and a 3.2 mm stainless steel bead (BioSpec Products, Bartlesville, Okla.). Tissues were disrupted for four cycles of 45 seconds in a Mini-Beadbeater (Biospec Products). RNA was extracted in chloroform and the aqueous phase was mixed with an equal volume of 70% ethanol. Extracted RNA was applied to RNeasy 96 plates and purified by the spin method according to the manufacturer's protocol (RNeasy 96 Universal Tissue Protocol, QIAgen, Hilden Germany).
Automated sample amplifications and biotin labelings were carried out using the NuGEN Ovation RNA Amplification system V2 (Cat #3100), Ovation WB reagent (Cat #1300) and Encore Biotin module (Cat #4200) (NuGEN Technologies, Inc, San Carlos, Calif.) according to manufacturer's recommendations using an Arrayplex automated liquid handler (Beckman Coulter, Indianapolis, Ind.). Two micrograms of biotin labeled sscDNA probe were hybridized to Affymetrix GeneChip Affymetrix HT_MG-430_PM plate arrays with modified conditions as described in Allaire et al. Washing and staining of the hybridized arrays were completed as described in the GeneChip Expression analysis technical manual for HT plate arrays using the Genechip® Array Station (Affymetrix, Santa Clara, Calif.) with modifications as described in Allaire et al. The processed GeneChip® plate arrays were scanned using GeneTitan scanner (Affymetrix, Santa Clara, Calif.).
Affymetrix scans were subject to quality control (QC) measures. These tests included a visual inspection of the distribution of raw signal intensities and an assessment of RNA degradation, relative log expression (RLE), and normalized unsealed standard error (NUSE). All sample scans that passed these QC metrics were included in the analysis.
All CEL files were subjected to GC-content-based Robust Multi-array Average (GCRMA) normalization (version 2.20.0) (Irizarry R A, et al. Nucleic Acids Res 2003; 31:e15; Li C, et al. Genome Biol 2001; 2:[…]0032). Expression levels were log (base 2) transformed.
All calculations and analyses were carried out using R (version 2.11.1) and Bioconductor computational tools (Gentleman R. Springer Science+Business Media 2005).

Compound: COC(=O)/C=C/C(=O)OC [DMF, dimethyl fumarate]
- FC Tox3 (1436600_PM_at) (2 h): 1.70
- FC Tsku (1440230_PM_at) (2 h): 1.61
- FC Ugt2b5 (1419622_PM_at) (2 h): 3.40
- FC Ugt2b35 (1439624_PM_at) (2 h): 3.22
- FC Ugt2b36 (1455595_PM_at) (2 h): 2.07
- FC Unc5cl (1429950_PM_at) (2 h): −1.53
- FC probe 1441046_PM_at (2 h): 1.54
- FC probe 1443118_PM_at (2 h): 1.91
- FC probe 1444265_PM_at (2 h): 1.75
- FC probe 1445980_PM_at (2 h): 2.92
- FC probe 1446045_PM_at (2 h): 1.52
- FC probe 1447411_PM_at (2 h): 2.88
- FC probe 1459091_PM_at (2 h): 1.98
- FC 9430069I07Rik (1431672_PM_at) (7 h): 2.76
- FC Abcc3 (1428988_PM_at) (7 h): 1.88
- FC Acsm5 (1437662_PM_at) (7 h): 1.60
- FC Acss2 (1446542_PM_at) (7 h): 1.71
- FC Akr1b8 (1448894_PM_at) (7 h): 8.53
- FC Akr1c13 (1418672_PM_at) (7 h): 1.61
- FC Akr1c19 (1455454_PM_at) (7 h): 2.07
- FC Cbr1 (1460196_PM_at) (7 h): 1.65
- FC Cbr3 (1427912_PM_at) (7 h): 22.39
- FC Ces1e (1419510_PM_at) (7 h): 2.10
- FC Ces1f (1424266_PM_s_at) (7 h): 3.58
- FC Ces1g (1449486_PM_at) (7 h): 4.67
- FC Ddc (1426215_PM_at) (7 h): 1.74
- FC G6pd2 (1422327_PM_s_at) (7 h): 1.82
- FC G6pdx (1448354_PM_at) (7 h): 1.54
- FC Gclc (1424296_PM_at) (7 h): 2.06
- FC Gclc (1455959_PM_s_at) (7 h): 1.88
- FC Gsr (1421816_PM_at) (7 h): 2.83
- FC Gss (1441931_PM_x_at) (7 h): 1.89
- FC Gss (1448273_PM_at) (7 h): 1.97
- FC Gsta2 (1421040_PM_a_at) (7 h): 5.81
- FC Gsta2 (1421041_PM_s_at) (7 h): 1.72
- FC Gsta3 (1423436_PM_at) (7 h): 4.27
- FC Gsta3 (1423437_PM_at) (7 h): 3.89
- FC Gstm1 (1416416_PM_x_at) (7 h): 3.19
- FC Gstm1 (1425627_PM_x_at) (7 h): 3.45
- FC Gstm1 (1448330_PM_at) (7 h): 3.40
- FC Gstm2 (1416411_PM_at) (7 h): 1.58
- FC Gstm3 (1427473_PM_at) (7 h): 2.82
- FC Gstm3 (1427474_PM_s_at) (7 h): 1.79
- FC Gstm4 (1424835_PM_at) (7 h): 3.83
- FC Gstm6 (1422072_PM_a_at) (7 h): 1.94
- FC Htatip2 (1451814_PM_a_at) (7 h): 1.51
- FC Nqo1 (1423627_PM_at) (7 h): 2.31
- FC Pir (1429001_PM_at) (7 h): 3.79
- FC Setd4 (1425239_PM_at) (7 h): 1.90
- FC Setd4 (1435405_PM_at) (7 h): 1.50
- FC Setd4 (1460373_PM_a_at) (7 h): 1.50
- FC Slc5a4b (1422757_PM_at) (7 h): 1.67
- FC Txnrd1 (1424487_PM_x_at) (7 h): 1.60
- FC Ugt2b5 (1419622_PM_at) (7 h): 3.42
- FC Ugt2b35 (1439624_PM_at) (7 h): 2.66
- FC Ugt2b36 (1455595_PM_at) (7 h): 2.23
- FC Aldh1a7 (1418601_PM_at) (12 h): 1.65
- FC Gstm1 (1416416_PM_x_at) (12 h): 3.56
- FC Gstm2 (1416411_PM_at) (12 h): 2.04
